According to patent US9540343B2 (Gilead Sciences, Inc., priority 2011, dated 2017):

Tests used:
HIV-IIIb = experiment: Test A: Antiviral assay in MT4 cells; assay type: cell-based, HIV-1; conditions: Human immunodeficiency virus 1, IIIB, MT4, 120 h, read-out: % inhibition at 2 μM, percent inhibition of virus-induced cell killing, from dose response curve at 2 uM drug; MT-4 cells infected with HIV-IIIb, 5 days, CellTiter-Glo
in vitro = conditions: human, uninfected MT-4 cells, CC50 (nM), same protocol as Test A, CellTiter-Glo
Outline: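 Cytoprotection read-out: CellTiter-Glo chemiluminescence after 5 days at 37 °C of HIV-IIIb-infected MT-4 cells (m.o.i. 0.003) with compound in 10-point 3-fold dilutions, quadruplicate, 10% FBS. Cytotoxicity (CC50) measured identically without virus.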

| Compound | inhibition at 2 µM (HIV-IIIb) [%] | CC50 at 5 days (in vitro) [nM] |
| --- | --- | --- |
| C=Cc1cn(CC(=O)N[C@@H](Cc2cc(F)cc(F)c2)c2ncccc2-c2ccc(F)c(C(N)=O)c2)nc1C(F)(F)F [Example 297, (S)-5-(2-(2-(3,5-difluorophenyl)-1-(2-(3-(trifluoromethyl)-4-vinyl-1H-pyrazol-1-yl)acetamido)ethyl)pyridin-3-yl)-2-fluorobenzamide] | 14 | 23300 |
| NC(=O)c1cccc(-c2cccnc2[C@H](Cc2cc(F)cc(F)c2)NC(=O)Cn2ccc3ccc(=O)[nH]c32)c1 [Example 298C, (S)-3-(2-(2-(3,5-difluorophenyl)-1-(2-(6-oxo-6,7-dihydro-1H-pyrrolo[2,3-b]pyridin-1-yl)acetamido)ethyl)pyridin-3-yl)benzamide] | 61 | > 53000 |
| O=C(Cn1nc(C(F)F)c2c1C1CC1CC2)NC(Cc1cc(F)cc(F)c1)c1ncncc1-c1cnc2[nH]ccc2c1 (stereo not drawn) [Example 299D, N-(1-(5-(1H-pyrrolo[2,3-b]pyridin-5-yl)pyrimidin-4-yl)-2-(3,5-difluorophenyl)ethyl)-2-(3-(difluoromethyl)-5,5a,6,6a-tetrahydrocyclopropa[g]indazol-1(4H)-yl)acetamide] | 100 | 19500 |
| CN(C)Cc1cn(CC(=O)N[C@@H](Cc2cc(F)cc(F)c2)c2ncccc2-c2ccc(F)c(C(N)=O)c2)nc1C(F)(F)F [Example 300, (S)-5-(2-(2-(3,5-difluorophenyl)-1-(2-(4-((dimethylamino)methyl)-3-(trifluoromethyl)-1H-pyrazol-1-yl)acetamido)ethyl)pyridin-3-yl)-2-fluorobenzamide] | 0 | > 53200 |
| O=C(Cn1nc(C(F)(F)F)c2c1CCCC2)N[C@@H](Cc1cc(F)cc(F)c1)c1nc[nH]c(=O)c1-c1ccc(Cl)cc1 [Example 301B, (S)—N-(1-(5-(4-chlorophenyl)-6-oxo-1,6-dihydropyrimidin-4-yl)-2-(3,5-difluorophenyl)ethyl)-2-(3-(trifluoromethyl)-4,5,6,7-tetrahydro-1H-indazol-1-yl)acetamide] | 0 | 5650 |
| O=C(Cc1c[nH]c2ccc(F)cc12)N[C@@H](Cc1cc(F)cc(F)c1)c1ncccc1-c1ccnc(-c2nn[nH]n2)c1 [Example 302, (S)—N-(1-(2′-(2H-tetrazol-5-yl)-3,4′-bipyridin-2-yl)-2-(3,5-difluorophenyl)ethyl)-2-(5-fluoro-1H-indol-3-yl)acetamide] | 0 | 16800 |
| NC(=O)c1cc(-c2cccnc2[C@H](Cc2cc(F)cc(F)c2)NC(=O)Cn2nc(C(F)(F)F)c3c2CCNC3)ccc1F [Example 303, (S)-5-(2-(2-(3,5-difluorophenyl)-1-(2-(3-(trifluoromethyl)-4,5,6,7-tetrahydro-1H-pyrazolo[4,3-c]pyridin-1-yl)acetamido)ethyl)pyridin-3-yl)-2-fluorobenzamide] | 14 | 35500 |
| NC(=O)c1cc(-c2cccnc2[C@H](Cc2cc(F)cc(F)c2)NC(=O)Cn2nc(C(F)F)c3c2C2CC2CC3(F)F)ccc1F (stereo partly drawn) [Example 304C, 5-(2-((1S)-1-(2-(3-(difluoromethyl)-4,4-difluoro-5,5a,6,6a-tetrahydrocyclopropa[g]indazol-1(4H)-yl)acetamido)-2-(3,5-difluorophenyl)ethyl)pyridin-3-yl)-2-fluorobenzamide] | 94 | 1700 |
| NC(=O)c1cc(-c2cccnc2[C@H](Cc2cc(F)cc(F)c2)NC(=O)Cn2cc(CN3CCOCC3)c(C(F)(F)F)n2)ccc1F [Example 305, (S)-5-(2-(2-(3,5-difluorophenyl)-1-(2-(4-(morpholinomethyl)-3-(trifluoromethyl)-1H-pyrazol-1-yl)acetamido)ethyl)pyridin-3-yl)-2-fluorobenzamide] | 0 | > 53200 |
| Cc1nn(CC(=O)N[C@@H](Cc2cc(F)cc(F)c2)c2ncccc2-c2cccc(C(N)=O)c2)c2cc(O)ccc12 [Example 306C, (S)-3-(2-(2-(3,5-difluorophenyl)-1-(2-(6-hydroxy-3-methyl-1H-indazol-1-yl)acetamido)ethyl)pyridin-3-yl)benzamide] | 10 | 41600 |
| NC(=O)c1cc(-c2cccnc2[C@H](Cc2cc(F)cc(F)c2)NC(=O)Cn2nc(C(F)F)c3c2CCCC3)ccc1F [Example 307, (S)-5-(2-(1-(2-(3-(difluoromethyl)-4,5,6,7-tetrahydro-1H-indazol-1-yl)acetamido)-2-(3,5-difluorophenyl)ethyl)pyridin-3-yl)-2-fluorobenzamide] | 99 | 26700 |
| NC(=O)c1cc(-c2cncnc2[C@H](Cc2cc(F)cc(F)c2)NC(=O)Cn2nc(C(F)F)c3c2C(F)(F)CCC3(F)F)ccc1F [Example 308, (S)-5-(4-(1-(2-(3-(difluoromethyl)-4,4,7,7-tetrafluoro-4,5,6,7-tetrahydro-1H-indazol-1-yl)acetamido)-2-(3,5-difluorophenyl)ethyl)pyrimidin-5-yl)-2-fluorobenzamide] | 102 | 39800 |
| NC(=O)c1cc(-c2cccnc2[C@H](Cc2cc(F)cc(F)c2)NC(=O)Cn2c(=O)[nH]c3cc(Cl)c(Cl)cc32)ccc1F [Example 309, (S)-5-(2-(1-(2-(5,6-dichloro-2-oxo-2,3-dihydro-1H-benzo[d]imidazol-1-yl)acetamido)-2-(3,5-difluorophenyl)ethyl)pyridin-3-yl)-2-fluorobenzamide] | 9 | 12000 |
| NC(=O)c1cc(-c2cccnc2[C@H](Cc2cc(F)cc(F)c2)NC(=O)Cc2c[nH]c3ccc(O)cc23)ccn1 [Example 310C, (S)-2-(2-(3,5-difluorophenyl)-1-(2-(5-hydroxy-1H-indol-3-yl)acetamido)ethyl)-3,4′-bipyridine-2′-carboxamide] | 97 | > 53000 |
| NC(=O)c1cc(-c2cccnc2[C@H](Cc2cc(F)cc(F)c2)NC(=O)Cn2cc(C(N)=O)c(C(F)(F)F)n2)ccc1F [Example 312, (S)-1-(2-(1-(3-(3-carbamoyl-4-fluorophenyl)pyridin-2-yl)-2-(3,5-difluorophenyl)ethylamino)-2-oxoethyl)-3-(trifluoromethyl)-1H-pyrazole-4-carboxamide] | 2 | > 53200 |
| NC(=O)c1cccc(-c2cncnc2[C@@H](Cc2cc(F)cc(F)c2)NC(=O)Cc2c[nH]c3ccc(O)cc23)c1 [Example 313, (R)-3-(4-(2-(3,5-difluorophenyl)-1-(2-(5-hydroxy-1H-indol-3-yl)acetamido)ethyl)pyrimidin-5-yl)benzamide] | 14 | > 53200 |
| CCNCc1cn(CC(=O)N[C@@H](Cc2cc(F)cc(F)c2)c2ncccc2-c2ccc(F)c(C(N)=O)c2)nc1C(F)(F)F [Example 314, (S)-5-(2-(2-(3,5-difluorophenyl)-1-(2-(4-((ethylamino)methyl)-3-(trifluoromethyl)-1H-pyrazol-1-yl)acetamido)ethyl)pyridin-3-yl)-2-fluorobenzamide] | 3 | 23600 |
| NC(=O)c1cccc(-c2cccnc2[C@H](Cc2cc(F)cc(F)c2)NC(=O)Cn2c(C(F)(F)F)nc3ccc(OC(F)(F)F)cc32)c1 [Example 315, (S)-3-(2-(2-(3,5-difluorophenyl)-1-(2-(6-(trifluoromethoxy)-2-(trifluoromethyl)-1H-benzo[d]imidazol-1-yl)acetamido)ethyl)pyridin-3-yl)benzamide] | 0 | 47200 |
| NC(=O)c1cc(-c2cccnc2[C@H](Cc2cc(F)cc(F)c2)NC(=O)Cn2nc(C(F)F)cc2C2CC2)ccc1F [Example 317, (S)-5-(2-(1-(2-(5-cyclopropyl-3-(difluoromethyl)-1H-pyrazol-1-yl)acetamido)-2-(3,5-difluorophenyl)ethyl)pyridin-3-yl)-2-fluorobenzamide] | 41 | > 47600 |
| NC(=O)c1cc(-c2cccnc2[C@H](Cc2cc(F)cc(F)c2)NC(=O)Cn2c(=O)[nH]c3ccccc32)ccc1F [Example 318, (S)-5-(2-(2-(3,5-difluorophenyl)-1-(2-(2-oxo-2,3-dihydro-1H-benzo[d]imidazol-1-yl)acetamido)ethyl)pyridin-3-yl)-2-fluorobenzamide] | 27 | > 53200 |
| Cc1cc2nc(C(F)(F)F)n(CC(=O)N[C@@H](Cc3cc(F)cc(F)c3)c3ncccc3-c3ccc(F)c(C(N)=O)c3)c2cc1C [Example 319, (S)-5-(2-(2-(3,5-difluorophenyl)-1-(2-(5,6-dimethyl-2-(trifluoromethyl)-1H-benzo[d]imidazol-1-yl)acetamido)ethyl)pyridin-3-yl)-2-fluorobenzamide] | 70 | > 52500 |
| Cc1cc2ncn(CC(=O)N[C@@H](Cc3cc(F)cc(F)c3)c3ncncc3-c3ccc(Cl)cc3)c2cc1C [Example 320, (S)—N-(1-(5-(4-chlorophenyl)pyrimidin-4-yl)-2-(3,5-difluorophenyl)ethyl)-2-(5,6-dimethyl-1H-benzo[d]imidazol-1-yl)acetamide] | 110 | 12500 |
| Cc1cc(=O)n(CC(=O)N[C@@H](Cc2cc(F)cc(F)c2)c2ncccc2-c2cccc(C(N)=O)c2)c2ccccc12 [Example 321, (S)-3-(2-(2-(3,5-difluorophenyl)-1-(2-(4-methyl-2-oxoquinolin-1(2H)-yl)acetamido)ethyl)pyridin-3-yl)benzamide] | 30 | 29700 |
| NC(=O)c1cc(-c2cccnc2[C@H](Cc2cc(F)cc(F)c2)NC(=O)Cn2nc(C(F)(F)F)c3c2CC(=O)CC3)ccc1F [Example 322, (S)-5-(2-(2-(3,5-difluorophenyl)-1-(2-(6-oxo-3-(trifluoromethyl)-4,5,6,7-tetrahydro-1H-indazol-1-yl)acetamido)ethyl)pyridin-3-yl)-2-fluorobenzamide] | 10 | 37100 |
